Test results: paper PMC5428521, “Identification of a Novel, Small Molecule Partial Agonist for the Cyclic AMP Sensor, EPAC1” (Scientific Reports, 2017)
pIC50, pKd: −log10 of the molar value. Like-named read-outs stand apart in the source and are kept apart here.

Key:
EPAC1-CNB [1] = molecular target: T1, EPAC1-CNB (Homo sapiens, UniProt O95398); assay: 8-NBD-cAMP competition assay with EPAC1-CNB; type: binding
T1 construct: EPAC1-CNB (amino acids 169–318 of EPAC1); made in house; host or cells: BL-21 Escherichia coli (pGEX-6P-1)
T1 sequence (O95398 169-318 isoform O95398-3): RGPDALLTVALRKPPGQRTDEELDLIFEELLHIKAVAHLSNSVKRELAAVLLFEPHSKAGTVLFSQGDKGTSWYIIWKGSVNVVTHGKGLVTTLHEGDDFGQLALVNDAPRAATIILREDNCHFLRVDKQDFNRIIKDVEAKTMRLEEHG
Description: Optimisation of assay conditions was performed in 96 well black assay plates (Greiner). Comparison of reference molecules, dose response curves and pilot screen were done in black, low volume 384 assay plates (Greiner). Liquids were dispensed using a Biomek Fx laboratory automation workstation with a 96-multichannel pipetting head (Beckman Coulter) for optimisation, whereas the Echo® Liquid Handler (Labcyte) and Wellmate automated dispenser (Thermo Matrix) were employed for pilot screens (see library screening).
This was done using the optimised assay conditions developed during the study. Library compounds were transferred from pre-prepared, 1000x stock Echo® 384 LDV source plates (Labcyte) into black, low volume 384 assay plates (Greiner) at 25 nl volumes, using an Echo® Liquid Handler (Labcyte), maintaining 0.1–1% DMSO throughout. EPAC1-CNB (0.8 µM) was immediately added using a Wellmate automated dispenser (Thermo Matrix). Plates were centrifuged at 800 rpm, 10 s, and then incubated for 30 minutes, RT, to promote compound-protein complex formation. […] The assay was incubated at room temperature and the fluorescence intensity at 480/535 nm (ex/em) was measured after 4–15 hours using the Envision plate reader.

EPAC1-CNB [2] = molecular target: T1, EPAC1-CNB; settings: published Kd values shown for comparison; cited from earlier work
[3] = molecular target: T2, EPAC1 (amino acids 149–881) (Homo sapiens, UniProt O95398); assay: In vitro GEF activity assay (MANT-GDP dissociation from Rap1), EPAC1; type: biochemical; settings: 500 μM compound, 500 μM cAMP
T2 construct: recombinant EPAC1 (amino acids 149–881); made in house; host or cells: bacteria
T2 sequence (O95398 149-881 isoform O95398-3): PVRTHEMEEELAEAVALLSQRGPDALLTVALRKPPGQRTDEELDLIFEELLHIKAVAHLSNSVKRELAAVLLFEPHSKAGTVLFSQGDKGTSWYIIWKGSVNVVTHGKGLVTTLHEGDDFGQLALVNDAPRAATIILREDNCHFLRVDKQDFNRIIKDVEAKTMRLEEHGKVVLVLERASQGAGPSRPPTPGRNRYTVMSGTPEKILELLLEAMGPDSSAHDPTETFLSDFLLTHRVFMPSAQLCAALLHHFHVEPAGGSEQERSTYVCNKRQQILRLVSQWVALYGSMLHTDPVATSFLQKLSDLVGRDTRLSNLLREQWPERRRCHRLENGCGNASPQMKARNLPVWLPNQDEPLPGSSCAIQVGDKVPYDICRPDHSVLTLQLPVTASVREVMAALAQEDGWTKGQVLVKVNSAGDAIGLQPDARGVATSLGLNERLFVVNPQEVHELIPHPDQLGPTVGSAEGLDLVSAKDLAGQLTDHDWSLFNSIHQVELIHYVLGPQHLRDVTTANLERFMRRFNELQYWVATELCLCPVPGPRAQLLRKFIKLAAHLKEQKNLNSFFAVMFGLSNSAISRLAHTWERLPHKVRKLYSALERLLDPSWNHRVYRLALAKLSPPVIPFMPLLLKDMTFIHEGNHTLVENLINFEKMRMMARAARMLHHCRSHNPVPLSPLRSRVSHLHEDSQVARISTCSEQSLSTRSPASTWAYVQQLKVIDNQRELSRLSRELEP
Description: For this, we used the well-characterised EPAC GEF activity assay. The assay is based on the EPAC-stimulated dissociation of fluorescent MANT-GDP from recombinant Rap1 in the presence of excess non-fluorescent nucleotide.
The data are fitted as single exponential decay with off-set (red lines) to obtain the rate constants kobs, as shown in (b).
EPAC1 and EPAC2 in vitro GEF activities were calculated as previously described. Briefly, recombinant EPAC1 (amino acids 149–881) or EPAC2 (amino acids 280–993) were incubated at 100 nM with recombinant Rap1 (200 nM) preloaded with the fluorescent GDP analogue 2′/3′-O-(N-Methylanthraniloyl)guanosine 5-diphosphate (MANT-GDP) in the presence of 20 μM GDP and then the fluorescence intensity was measured at 360/450 nm (ex/em) over time. […] AC50 or IC50 values were determined from the plots of kobs against the concentration of the agonist and antagonist, respectively Table 1.

protein kinase A (PKA) = assay: PKA kinase activity assay in HEK293T cell extracts; type: biochemical; settings: 1 mM cAMP, compound 0.1 to 100 µM
Description: PKA activity was measured directly in cell extracts using the PKA Kinase Activity Assay Kit (Abcam) following the manufacturer's instructions. […] Cells were washed in ice-cold PBS containing phosphatase inhibitors, scrapped into Eppendorf tubes and centrifuged at 200 × g at 4 °C for 5 minutes. Supernatants were discarded and the cell pellet was re-suspended in Complete Lysis Buffer containing 1 mM DTT, 1 mM PMSF and protease inhibitor cocktail (Roche) and then incubated for 10 minutes on ice (on the rocking platform) followed by vortex and centrifugation at […] at 4 °C for 20 minutes. Cell extracts were then transferred to fresh Eppendorf tubes, assayed for protein content and then stored at -80 °C. […] Next, 10 μl of ATP was added to each well and incubated at 30 °C for 90 min, with gentle shaking. The reaction was stopped by aspirating the contents of each well and then 40 μl of PKA phosphospecific substrate antibody was added to each well and then the plate was covered with plastic wrap and incubated at room temperature for 60 min (with gentle shaking every 20 min). […] Fluorescence was then measured at 480/530 nm. […] PKA activity was then measured in the cell extracts using an ELISA assay according to the manufactures instructions. […]

GST = GST (Schistosoma japonicum, UniProt P08515); assay: Ligand observed NMR (1D and waterLOGSY) with GST alone; type: binding; settings: compound 50 µM, GST 2.5 µM
Excerpt: (§1) Given that I942 seems to exert selective agonist properties against EPAC1, but not EPAC2, we next sought to validate whether our isolated ligands can interact with EPAC1 and EPAC2. Ligand observed nuclear magnetic resonance (NMR) is a valuable tool for the identification and validation of small molecule ligands. We therefore used one dimensional proton (1D) and water-ligand observed by gradient spectroscopy (waterLOGSY) NMR to confirm the ability of I942 and I178 to bind to the purified CNBs of EPAC1 and EPAC2, in comparison with the commercially available EPAC1 antagonist, ESI-09[32]. In order to assess ligand/CNB interaction, 1D and waterLOGSY experiments were performed on each compound (50 µM) in the presence or absence of 2.5 µM EPAC-CNB. In the absence of protein, each test compound produced a well-resolved 1D spectrum and a region of each spectrum was chosen to display distinctive spectral peaks originating from the ligand (Fig. 6). In the absence of protein, the corresponding waterLOGSY peaks were small, or absent, due to the negligible signal produced by saturation transfer from water to the freely tumbling small molecule. […] In waterLOGSY spectra, protein-mediated saturation transfer can only occur if the protein-ligand complex has a substantial lifetime. […]
(§2) (A) One dimensional proton (1D) and waterLOGSY (WL) spectra were performed on samples containing hit compound I942 (50 µM) in the absence and presence of EPAC1-CNB, EPAC2-CNB or GST alone, as indicated (2.5 µM). […] Interaction between compound and protein was assessed through comparison of the compound alone and protein-compound sample spectra. […]
(§3) All NMR spectra were recorded on a Bruker AVANCE IIIHD 600 spectrometer equipped with a TCI cryoprobe at 285 K. Test compounds were prepared in deuterated DMSO and diluted to given experimental concentrations in NMR buffer (20 mM Na2PO4, pH 7.0, 50 mM NaCl, 0.1% (w/v) NaN3, 5% (v/v) D2O) with a final DMSO concentration below 0.1%. […] One dimensional proton (1D) and waterLOGSY spectra were recorded for all compounds tested, using pulse sequences as previously described. […]

EPAC1-CNB [4] = molecular target: T1, EPAC1-CNB; assay: Ligand observed NMR (1D and waterLOGSY) with EPAC1-CNB; type: binding; settings: compound 50 µM, protein 2.5 µM
Excerpt: as §1, §2, §3

EPAC2-CNB = molecular target: T3, EPAC2-CNB (Mus musculus, UniProt Q9EQZ6); assay: Ligand observed NMR (1D and waterLOGSY) with EPAC2-CNB; type: binding; settings: compound 50 µM, protein 2.5 µM
T3 construct: EPAC2-CNB (amino acids 304–453 of EPAC2); made in house; host or cells: BL-21 Escherichia coli (pGEX-6P-1)
T3 sequence (Q9EQZ6 304-453 isoform Q9EQZ6-3): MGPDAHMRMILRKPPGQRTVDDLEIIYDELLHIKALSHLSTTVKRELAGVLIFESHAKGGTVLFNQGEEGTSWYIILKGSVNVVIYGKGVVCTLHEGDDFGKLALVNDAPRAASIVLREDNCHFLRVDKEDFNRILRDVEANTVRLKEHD
Excerpt: as §1, §2, §3

[5] = 7-point dose response, 75 µM top concentration, 0.75% DMSO, read-out: IC50, 8-NBD-cAMP binding assay
[6] = 8-NBD-cAMP 62.5 nM, EPAC1-CNB 0.8 µM, known competitor compounds, read-out: IC50, inhibition of 8-NBD-cAMP fluorescence

GST, sequence (P08515 whole entry): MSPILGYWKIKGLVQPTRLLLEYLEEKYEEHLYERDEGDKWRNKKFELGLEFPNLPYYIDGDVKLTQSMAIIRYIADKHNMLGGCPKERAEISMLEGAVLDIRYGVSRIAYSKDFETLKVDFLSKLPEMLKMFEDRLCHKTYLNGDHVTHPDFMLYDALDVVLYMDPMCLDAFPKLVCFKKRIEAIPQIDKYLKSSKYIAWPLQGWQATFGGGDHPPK

Compound	pIC50 (EPAC1-CNB [1]; [5])	pIC50 (EPAC1-CNB [1]; [6])	pKd (EPAC1-CNB [2])	further results
N-[(4-chlorophenyl)sulfonyl]-2-(1-naphthyloxy)acetamide [I288]	~4.15	–	–	–
Nc1ncnc2c1nc(Sc1ccc(Cl)cc1)n2[C@@H]1O[C@@H]2COP(=O)(O)O[C@H]2[C@H]1O [8-CPT, 8-CPT-cAMP, reference compound]	–	6.28	7.40	–
CC(=O)Nc1cccc(OCC(=O)NS(=O)(=O)c2ccc(C)cc2)c1 [I516, 2-[3-(acetylamino)phenoxy]-N-[(4-methylphenyl)sulfonyl]acetamide]	< 4.12	–	–	inhibition of cAMP-induced EPAC1 activity [3]: no detectable inhibitory effect
CO[C@@H]1[C@@H]2OP(=O)(O)OC[C@H]2O[C@H]1n1c(Sc2ccc(Cl)cc2)nc2c(N)ncnc21 [compound 007, 8-pCPT-2′-O-Me-cAMP, reference compound]	–	5.78	6.20	–
O=S(=O)(NCCNC/C=C/c1ccc(Br)cc1)c1cccc2cnccc12 [H-89, reference compound]	–	–	–	effect on PKA activity induced by cAMP (protein kinase A (PKA)): dose-dependent inhibition
CC(C)(C)c1cc(C(=O)C(C#N)=NNc2cccc(Cl)c2)no1 [ESI-09, 3-(5-tert-butyl-isoxazol-3-yl)-2-[(3-chloro-phenyl)-hydrazonol]-3-oxo-propionitrile, reference compound]	–	–	–	NMR interaction with GST alone (GST): may interact non-specifically with GST; NMR interaction (EPAC1-CNB [4]): attenuated; NMR interaction (EPAC2-CNB): attenuated
